# Assays:
# [1] = system: Mycobacterium smegmatis (ATCC 1441); assay: microbe, parasite or virus in culture; type: cell-based; details: for MIC: Mycolicibacterium smegmatis, ATCC1441, 24 h, read-out: MIC M. smegmatis
# M. bovis (ATCC 27290) = assay: microbe, parasite or virus in culture; type: cell-based, Mycobacterium bovis; details: for MIC: Mycobacterium tuberculosis variant bovis, ATCC27290, read-out: MIC M. bovis
# [2] = system: M. tuberculosis H37RV (ATCC 27294); assay: microbe, parasite or virus in culture; type: cell-based, Mycobacterium tuberculosis; details: for MIC: Mycobacterium tuberculosis, ATCC27294|H37RV, read-out: MIC M. tb H37Rv
# [3] = system: pathogenic and non-pathogenic Mycobacterium strains; type: cell-based
# Caco-2 cells = type: cell-based, human
# Vero monkey kidney cells = type: cell-based
# HepG2 liver cells = details: human
# C3A cells = type: cell-based
# M. fortuitum (ATCC 6841) = assay: microbe, parasite or virus in culture; type: cell-based, Mycobacterium fortuitum; details: Mycolicibacterium fortuitum, ATCC6841, 24 h, read-out: MIC M. fortuitum
# in vitro = details: human, Cell viability of HepG2 cells treated with the toxicant alone
# M. aurum (NCTC 10437) = assay: microbe, parasite or virus in culture; type: cell-based, Mycobacterium aurum; details: Mycolicibacterium aurum, NCTC10437, read-out: MIC M. aurum
# Mycobacterium = details: antimycobacterial activity; ref Boonphong et al., 2007; cited from earlier work
# HepG2 cells = details: tert-butyl hyperoxide induced-toxicity on HepG2 cells; ref Kim et al. (2011); cited from earlier work
molecule,measurement,setting,value
4′-methoxykaempferol,MIC M. smegmatis,[1],250 µg/mL
same,MIC M. bovis,M. bovis (ATCC 27290),125 µg/mL
same,MIC M. tb H37Rv,[2],125 µg/mL
same,Antimycobacterial activity in words,[3],weak
"COc1ccc(C2CC(=O)c3c(OC)cc(OC)cc3O2)cc1 (stereo not drawn) [5,7,4′-trimethoxy flavanone]",Selectivity index LC50/MIC M. bovis,Caco-2 cells,3.175
same,Selectivity index LC50/MIC M. fortuitum,Caco-2 cells,3.175
same,Selectivity index LC50/MIC M. smegmatis,Caco-2 cells,3.175
same,Selectivity index LC50/MIC M. tb H37RV,Caco-2 cells,6.452
same,MIC,[1],63 µg/mL
same,MIC,M. bovis (ATCC 27290),63 µg/mL
same,Selectivity index LC50/MIC M. bovis,Vero monkey kidney cells,3.206
same,Selectivity index LC50/MIC M. fortuitum,Vero monkey kidney cells,3.206
same,Selectivity index LC50/MIC M. smegmatis,Vero monkey kidney cells,3.206
same,Percentage hepatoprotective activity (cell viability),HepG2 liver cells,85.674±0.0618%
same,MIC,[2],31 µg/mL
same,Selectivity index LC50/MIC M. bovis,C3A cells,3.174
same,Selectivity index LC50/MIC M. fortuitum,C3A cells,3.174
same,Selectivity index LC50/MIC M. smegmatis,C3A cells,3.174
same,Selectivity index LC50/MIC M. tb H37RV,C3A cells,6.452
same,Antimycobacterial activity in words,[3],good activity
same,MIC,M. fortuitum (ATCC 6841),63 µg/mL
"COc1ccc(-c2oc3cc(OC)cc(O)c3c(=O)c2OC)cc1 [5‑hydroxy-3,7,4′-trimethoxyflavone]",Selectivity index LC50/MIC M. bovis,Caco-2 cells,2.524
same,Selectivity index LC50/MIC M. fortuitum,Caco-2 cells,2.524
same,Selectivity index LC50/MIC M. smegmatis,Caco-2 cells,2.524
same,Selectivity index LC50/MIC M. tb H37RV,Caco-2 cells,2.524
same,MIC,[1],63 µg/mL
same,MIC,M. bovis (ATCC 27290),63 µg/mL
same,Selectivity index LC50/MIC M. fortuitum,Vero monkey kidney cells,3.127
same,Selectivity index LC50/MIC M. smegmatis,Vero monkey kidney cells,3.127
same,Selectivity index LC50/MIC M. tb H37RV,Vero monkey kidney cells,3.127
same,Percentage hepatoprotective activity (cell viability),HepG2 liver cells,89.277±0.023%
same,MIC,[2],63 µg/mL
same,Selectivity index LC50/MIC M. bovis,C3A cells,3.174
same,Selectivity index LC50/MIC M. fortuitum,C3A cells,3.174
same,Selectivity index LC50/MIC M. smegmatis,C3A cells,3.174
same,Selectivity index LC50/MIC M. tb H37RV,C3A cells,3.174
same,Antimycobacterial activity in words,[3],good activity
same,MIC,M. fortuitum (ATCC 6841),63 µg/mL
"CO[C@H]1/C=C/O[C@@]2(C)Oc3c(C)c(O)c4c(O)c(c(/C=N/N5CCN(C)CC5)c(O)c4c3C2=O)NC(=O)/C(C)=C\C=C\[C@H](C)[C@H](O)[C@@H](C)[C@@H](O)[C@@H](C)[C@H](OC(C)=O)[C@@H]1C [Rif (+ve con), rifampicin, reference compound]",MIC,[1],3.9 µg/mL
same,MIC,M. bovis (ATCC 27290),4 µg/mL
same,Selectivity index LC50/MIC M. aurum,Vero monkey kidney cells,23.500
same,Selectivity index LC50/MIC M. bovis,Vero monkey kidney cells,23.500
same,Selectivity index LC50/MIC M. fortuitum,Vero monkey kidney cells,1.492
same,Selectivity index LC50/MIC M. smegmatis,Vero monkey kidney cells,24.103
same,Selectivity index LC50/MIC M. tb H37RV,Vero monkey kidney cells,>100
same,Cell viability of HepG2 cells treated with the toxicant alone,HepG2 liver cells,65.27±0.184%
same,viability,in vitro,65%
same,MIC,M. aurum (NCTC 10437),4 µg/mL
same,MIC,[2],0.24 µg/mL
same,MIC,M. fortuitum (ATCC 6841),63 µg/mL
"[H]/N=C(/N)N[C@H]1[C@H](O)[C@@H](O)[C@H](O[C@@H]2O[C@@H](C)[C@](O)(C=O)[C@H]2O[C@@H]2O[C@@H](CO)[C@H](O)[C@@H](O)[C@@H]2NC)[C@@H](N/C(N)=N\[H])[C@@H]1O [Strep (+ve con), streptomycin, reference compound]",MIC,[1],3.9 µg/mL
same,MIC,M. bovis (ATCC 27290),4 µg/mL
same,MIC,M. aurum (NCTC 10437),4 µg/mL
same,MIC,[2],0.24 µg/mL
same,MIC,M. fortuitum (ATCC 6841),> 1000 µg/mL
COc1cc2oc(-c3ccc(O)cc3O)c(CC=C(C)C)c(=O)c2c(O)c1/C=C/C(C)C [artocarpin],MIC,Mycobacterium,3 µg/mL
O=c1c(O[C@@H]2O[C@@H](CO)[C@H](O)[C@H]2O)c(-c2ccc(O)c(O)c2)oc2cc(O)cc(O)c12 [avicularin],Hepatoprotective activity in words,HepG2 cells,significant hepatoprotective activity
O=c1c(O[C@@H]2O[C@H](CO)[C@@H](O)[C@H](O)[C@H]2O)c(-c2ccc(O)c(O)c2)oc2cc(O)cc(O)c12 [hirsutrin],Hepatoprotective activity in words,HepG2 cells,significant hepatoprotective activity
O=c1c(O)c(-c2ccc(O)c(O)c2)oc2cc(O)cc(O)c12 [quercetin],Hepatoprotective activity in words,HepG2 cells,significant hepatoprotective activity
chaplashin,MIC,Mycobacterium,3 µg/mL

# Reference: paper PMC10182713 (South African Journal of Botany, 2023)
